Data from patent US5962472A, “Use of 4-phenyl-3,6-dihydro-2H-pyridyl derivatives” (Hoffmann-La Roche Inc., priority 1996, dated 1999).
pIC50: −log10 of the molar value. Counter-ions that a name gives are not always drawn. Like-named read-outs stand apart in the source and are kept apart here.

Assays:
[1] = target: NMDA receptor (3H-MK801 binding, high and low affinity binding sites); assay: 3H-MK801 (Dizocilpine) binding in vitro, rat whole brain membranes; conditions: 5 nM 3H-MK-801, 2 hours, room temperature
Protocol: 3H-MK801 (Dizocilpine) binding in vitro
The whole brain from 150-200 g male rats, without cerebellum and without medulla oblongata was dissected on ice. The tissue was then homogenized with an Ultra-Turrax maximum speed during 30 seconds at 4° C. in 50 volumes of cold Tris HCl 50 mM, EDTA disodium 10 mM, pH=7.4 buffer (wet weight/v). The homogenate was centrifuged at 48'000 x g (20'000 rpm, SS34, Sorvall RC5C) for 10 minutes. The pellet was rehomogenized with the same volume of buffer and the homogenate incubated at 37° C. for 10 minutes. After centrifugation as above, the pellet was rehomogenized with the same volume of buffer and frozen at -80° C. in 35 ml fractions for at least 16 hours and not more than 2 weeks.
For the binding experiment, the homogenate was centrifuged as above and the pellet was washed 3 times by homogenization in 25 volumes of cold Tris HCl 5mM, pH=7.4 buffer (Ultra-Turrax, maximum speed, 30 seconds) and centrifugation as above. The final pellet was rehomogenized in 25 volumes of buffer (original wet weight) and used as such in the assay. The final concentration of membrane in the assay was 20 mg/ml (wet weight).
The incubation was performed in the presence of 1 nM glutamate, glycine and spermidine. MK-801, (+)-[3-3H(N)], NEN (NET-972) 20Ci/mmol, was used at 5 nM final concentration. Non specific binding was determined in presence of 10ONM 1-[1-(2-Thienyl)cyclohexyl]piperidine (TCP). After 2 hours of incubation at room temperature, the suspension was filtered (Whatmann GF/B, soaked in 0.1% polyethylenimine for 2 hours) and washed 5 times with 3 ml of cold Tris HCl 5mM, pH=7.4 buffer. The air-dried filters were counted with 10 ml of Ultima-gold (Packard) in a Tri-Carb 2500 TR scintillation counter after agitation.
The radioactive decays per minute (DPM) were transformed in % of specific binding and these values were treated by a non linear regression calculation program (BINDING, H. Affolter, Switzerland) which provided the IC50 values for the low and high affinity binding sites (=concentrations producing half maximal inhibition at the respective sites). Each experiment was repeated at least three times and the final IC50 values were calculated as the mean +/-standard deviation of the individual experiments.
Reference: R. W. Ransom and N. L. Stec. Journal of Neurochemistry 51, 830-836, 1988.

[2] = target: T1, NMDAR1C--NMDAR2B (Rattus norvegicus, UniProt P35439+Q00960); assay: Electrophysiology on recombinant NMDA receptors NMDAR1C-NMDAR2B expressed in Xenopus oocytes; format: cell-based; conditions: -80 mV, 15 μM Asp plus 0.2 μM Gly, read-out: Electrophysiology IC50 NMDAR 1C u. 2B
T1 construct: expressed in transfected cells; host or cells: Xenopus laevis oocytes, mRNA injected 1:1
Source text: (§1) Electrophysiology on recombinant NMDA receptors
(§2) cDNA clones coding for the subunits NMDAR1C and NMDAR2A of the NMDA receptor (see Hollmann and Heinemann, 1994, Annu. Rev. Neurosci. 17:31 for nomenclature of NMDA receptor subunits) were isolated from a rat brain λgt11 cDNA library as published elsewhere (Sigel et al., 1994, J. Biol. Chem. 269:8204). The clone for the subunit NMDAR2B of the rat brain NMDA receptor was obtained from S. Nakanishi (Kyoto, Japan). The cDNAs were transcribed, capped and poly(A^+)-tailed as described previously (Malherbe et al., 1990, Mol. Brain Res. 8: 199). Oocytes of South African frogs (Xenopus laevis) were used for expressing either a combination of the NMDAR1C and NMDAR2A subunits or the NMDAR1C and NMDAR2B subunits. Approximately 3 fmol of a 1:1 mixture of the respective mRNA species were injected into every oocyte. Four to five days later the ion current through the NMDA receptor channels was measured in voltage clamp experiments (see Methfessel et al., 1986, Pfliigers Arch. 407:577 for the methods of oocyte expression and voltage-clamping). The membrane potential was clamped to -80 mV and the receptors were activated by applying a modified Ringer's solution containing the NMDA-receptor agonists L-asparatate (Asp) and glycine (Gly). Different agonist concentrations were chosen for either subunit combination to account for the different agonist sensitivities of the two types of receptors (70 μM Asp plus 2.5 μM Gly for NMDARlC--NMDAR2A and 15 μM Asp plus 0.2 μM Gly for NMDAR1C--NMDAR2B). The agonists were applied for 15 s intervals once every 2.5 min by rapid superfusion of the oocyte with agonist containing solution and the amplitude of the agonist-evoked current was measured immediately before the end of each application. After a series of initial control applications, increasing concentrations of the antagonist to be tested were added to both, the basal Ringer's and the agonist containing solution. […] Figures for the IC50 in all other cases are arithmetic mean values of individual IC50 s determined by the logistic curve fits.

[3] = target: T2, NMDAR1C--NMDAR2A (Rattus norvegicus, UniProt P35439+Q00959); assay: Electrophysiology on recombinant NMDA receptors NMDAR1C-NMDAR2A expressed in Xenopus oocytes; format: cell-based; conditions: -80 mV, 70 μM Asp plus 2.5 μM Gly, > = highest tested concentration (solubility limit), read-out: Electrophysiology IC50 NMDAR 1C u. 2A
T2 construct: expressed in transfected cells; host or cells: Xenopus laevis oocytes, mRNA injected 1:1
Source text: as §1, §2

[4] = high affinity binding site, read-out: 3H-MK801 IC50 high
[5] = low affinity binding site, read-out: 3H-MK801 IC50 low

T2 sequence (Q00959 23-1464, other chains not shown): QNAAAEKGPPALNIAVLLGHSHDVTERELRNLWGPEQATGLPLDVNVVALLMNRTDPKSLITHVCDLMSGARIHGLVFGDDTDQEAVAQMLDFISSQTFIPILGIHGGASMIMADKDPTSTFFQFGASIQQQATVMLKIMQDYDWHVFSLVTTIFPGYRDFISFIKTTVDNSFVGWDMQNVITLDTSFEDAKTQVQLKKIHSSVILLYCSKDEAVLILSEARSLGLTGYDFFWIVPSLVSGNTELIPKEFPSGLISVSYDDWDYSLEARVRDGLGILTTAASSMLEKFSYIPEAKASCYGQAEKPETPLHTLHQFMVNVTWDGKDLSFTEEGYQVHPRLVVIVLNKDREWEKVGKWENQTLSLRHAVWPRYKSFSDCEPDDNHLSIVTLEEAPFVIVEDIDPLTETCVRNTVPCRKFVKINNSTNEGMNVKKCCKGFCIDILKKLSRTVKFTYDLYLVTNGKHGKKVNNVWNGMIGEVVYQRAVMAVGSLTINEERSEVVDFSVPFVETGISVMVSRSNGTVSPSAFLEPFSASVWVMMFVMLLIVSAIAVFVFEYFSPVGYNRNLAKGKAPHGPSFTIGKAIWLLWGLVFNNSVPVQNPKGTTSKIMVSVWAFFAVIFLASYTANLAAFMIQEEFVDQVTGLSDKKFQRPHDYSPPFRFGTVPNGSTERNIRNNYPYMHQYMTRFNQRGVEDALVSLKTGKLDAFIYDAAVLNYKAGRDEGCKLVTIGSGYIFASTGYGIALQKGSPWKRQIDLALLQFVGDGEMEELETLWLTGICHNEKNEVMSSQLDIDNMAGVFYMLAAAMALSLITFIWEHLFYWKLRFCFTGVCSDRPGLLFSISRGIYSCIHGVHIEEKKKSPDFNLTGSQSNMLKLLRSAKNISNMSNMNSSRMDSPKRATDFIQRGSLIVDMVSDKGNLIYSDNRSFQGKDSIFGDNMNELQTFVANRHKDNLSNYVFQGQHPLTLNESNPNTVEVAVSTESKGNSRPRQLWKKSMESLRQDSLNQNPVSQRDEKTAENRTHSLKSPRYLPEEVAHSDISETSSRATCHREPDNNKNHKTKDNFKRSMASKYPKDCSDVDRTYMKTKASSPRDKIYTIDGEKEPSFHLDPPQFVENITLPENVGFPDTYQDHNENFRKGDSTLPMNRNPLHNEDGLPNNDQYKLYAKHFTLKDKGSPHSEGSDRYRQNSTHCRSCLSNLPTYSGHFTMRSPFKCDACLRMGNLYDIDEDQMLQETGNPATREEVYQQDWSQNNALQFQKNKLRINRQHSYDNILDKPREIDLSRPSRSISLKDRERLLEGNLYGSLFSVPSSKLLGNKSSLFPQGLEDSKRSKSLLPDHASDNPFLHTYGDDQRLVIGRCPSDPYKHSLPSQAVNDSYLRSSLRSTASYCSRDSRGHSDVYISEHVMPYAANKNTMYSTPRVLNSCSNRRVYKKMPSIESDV
T1 sequence (Q00960 27-1482, other chains not shown): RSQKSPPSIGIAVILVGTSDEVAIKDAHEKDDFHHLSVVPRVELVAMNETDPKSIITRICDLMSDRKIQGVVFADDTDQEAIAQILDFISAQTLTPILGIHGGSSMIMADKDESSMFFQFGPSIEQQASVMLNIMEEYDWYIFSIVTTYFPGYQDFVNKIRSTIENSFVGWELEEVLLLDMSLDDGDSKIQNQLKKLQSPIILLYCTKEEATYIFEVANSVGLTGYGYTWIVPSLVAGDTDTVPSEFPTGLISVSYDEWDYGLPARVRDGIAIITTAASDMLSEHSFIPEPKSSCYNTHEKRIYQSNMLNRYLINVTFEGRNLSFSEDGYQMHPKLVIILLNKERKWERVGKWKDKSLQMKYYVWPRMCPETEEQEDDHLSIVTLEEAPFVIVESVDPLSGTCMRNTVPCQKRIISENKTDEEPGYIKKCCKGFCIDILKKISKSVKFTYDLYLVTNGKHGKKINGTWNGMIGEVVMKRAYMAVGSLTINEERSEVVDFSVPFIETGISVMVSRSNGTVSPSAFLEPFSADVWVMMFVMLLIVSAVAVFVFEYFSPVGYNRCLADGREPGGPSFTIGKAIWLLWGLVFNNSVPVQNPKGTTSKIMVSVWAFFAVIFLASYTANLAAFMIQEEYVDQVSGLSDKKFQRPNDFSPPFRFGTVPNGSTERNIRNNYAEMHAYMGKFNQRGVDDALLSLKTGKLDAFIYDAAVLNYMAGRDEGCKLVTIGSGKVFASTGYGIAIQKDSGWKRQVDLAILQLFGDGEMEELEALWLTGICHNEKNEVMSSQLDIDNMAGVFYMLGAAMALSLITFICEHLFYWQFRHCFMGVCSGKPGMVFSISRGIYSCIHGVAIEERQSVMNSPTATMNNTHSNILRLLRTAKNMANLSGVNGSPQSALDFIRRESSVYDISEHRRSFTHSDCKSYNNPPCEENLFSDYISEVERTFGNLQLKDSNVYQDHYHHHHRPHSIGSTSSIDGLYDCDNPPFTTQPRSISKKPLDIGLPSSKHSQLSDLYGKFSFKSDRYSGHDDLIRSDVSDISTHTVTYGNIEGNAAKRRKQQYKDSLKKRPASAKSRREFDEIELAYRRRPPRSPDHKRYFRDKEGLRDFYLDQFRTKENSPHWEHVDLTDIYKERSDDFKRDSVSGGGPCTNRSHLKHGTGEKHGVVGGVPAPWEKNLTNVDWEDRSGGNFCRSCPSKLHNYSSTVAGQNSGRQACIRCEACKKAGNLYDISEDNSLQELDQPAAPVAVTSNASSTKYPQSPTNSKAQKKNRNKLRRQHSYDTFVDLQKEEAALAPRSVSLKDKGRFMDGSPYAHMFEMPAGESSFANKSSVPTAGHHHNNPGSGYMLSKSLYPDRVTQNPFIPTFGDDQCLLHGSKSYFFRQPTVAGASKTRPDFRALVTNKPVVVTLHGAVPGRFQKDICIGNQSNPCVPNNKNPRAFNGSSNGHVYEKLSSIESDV

SMILES	pIC50 [1, 4]	pIC50 [1, 5]	pIC50 [2]	pIC50 [3]
NC(=O)Nc1ccc(OCC(O)CN2CC=C(c3ccc(F)cc3)CC2)cc1 (stereo not drawn) [A, [4-[3-[4-(4-Fluoro-phenyl)-3,6-dihydro-2H-pyridin-1-yl]-2-hydroxy-propoxy]-phenyl]-urea]	7.70	4.26		
CS(=O)(=O)Nc1ccc(OCCCN2CC=C(c3ccc(F)cc3)CC2)cc1 [B, N-[4-[3-[4-(4-Fluoro-phenyl)-3,6-dihydro-2H-pyridin-1-yl]-propoxy]-phenyl]-methanesulfonamide hydrochloride (1:1)]	7.70	4.12		
CS(=O)(=O)Nc1ccc(OCC(O)CN2CC=C(c3ccc(F)cc3)CC2)cc1 (stereo not drawn) [C, N-[4-[3-[4-(4-Fluoro-phenyl)-3,6-dihydro-2H-pyridin-1-yl]-2-hydroxy-propoxy]-phenyl]-methanesulfonamide]	7.70	4.16		
CCOC(=O)Nc1ccc(OCC(O)CN2CC=C(c3ccc(F)cc3)CC2)cc1 (stereo not drawn) [D, [4-[3-[4-(4-Fluoro-phenyl)-3,6-dihydro-2H-pyridin-1-yl]-2-hydroxy-propoxy]-phenyl]-carbamic acid ethyl ester]	6.87	3.49	6.20	< 4.70
CC(=O)Nc1ccc(OCCCN2CC=C(c3ccc(Cl)cc3)CC2)cc1 [E, N-[4-[3-[4-(4-chloro-phenyl)-3,6-dihydro-2H-pyridin-1-yl]-propoxy]-phenyl]-acetamide]	6.70	4.06		
CC(=O)Nc1ccc(OCCCN2CC=C(c3ccc(F)cc3)CC2)cc1 [F]	6.70	4.07		
CS(=O)(=O)Nc1ccc(OCCN2CC=C(c3ccc(F)cc3)CC2)cc1 [G, N-[4-[2-[4-(4-Fluoro-phenyl)-3,6-dihydro-2H-pyridin-1-yl]-ethoxy]-phenyl]-methanesulfonamide]	6.63	4.62	6.10	< 4.52
NC(=O)c1ccc(OCC(O)CN2CC=C(c3ccc(F)cc3)CC2)cc1 (stereo not drawn) [H]	6.48	4.40	6.15	< 4.52
CC(=O)Nc1ccc(OCC(O)CN2CC=C(c3ccccc3)CC2)cc1 (stereo not drawn) [I]	6.39	3.96		
Nc1ccc(OCCCN2CC=C(c3ccc(F)cc3)CC2)cc1 [J]	6.11	4.36		
COc1ccc(C2=CCN(CCCOc3ccc(NC(C)=O)cc3)CC2)cc1 [K]	6.04	4.12		
CCC(=O)Nc1ccc(OCCCN2CC=C(c3ccc(F)cc3)CC2)cc1 [L]	6.00	3.96		
OC(COc1ccccc1)CN1CC=C(c2ccccc2)CC1 (stereo not drawn) [M]	5.76	3.99		
CC(=O)c1ccc(OCCCN2CC=C(c3ccccc3)CC2)cc1 [O]	5.12	3.53		
OC(COc1ccc2c(c1)CCC2)CN1CC=C(c2ccc(F)cc2)CC1 (stereo not drawn) [compound N]	5.71	3.59		
